This assay relates to dopamine release. Nature of the assay: Dopamine release (receptor activation/inhibition). The class given is biochemical. Conditions: for Emax (dopamine release): amount released relative to (S)-(-)-nicotine or tetramethylammonium ion (TMA); for EC50: activation of dopamine release. Here is the method:
Dopamine release was measured using the techniques described in U.S. Pat. No. 5,597,919 to Dull et al. Release is expressed as a percentage of release obtained with a concentration of (S)-(-)-nicotine resulting in maximal effects. Reported EC50 values are expressed in nM, and Emax values represent the amount released relative to (S)-(-)-nicotine or tetramethylammonium ion (TMA), on a percentage basis.
Reported IC50 values are expressed in nM and represent the concentration resulting in 50% inhibition of agonist induced receptor activation. Emax values represent the amount released relative to (S)-(-)-nicotine on a percentage basis.

The text below walks through data of patent US6211372A, “Pharmaceutical compositions and methods for use” (priority 1999, dated 2001).

Consider `c1cncc(C2C3CC4CC(C3)CN2C4)c1` (stereo not drawn) [Sample No. 1, 1-aza-2-(3-pyridyl)-tricyclo[3.3.1.1^3,7]decane], for which the “Emax (dopamine release)” value is 0%.

As to `Brc1cncc(C2C3CC4CC(C3)CN2C4)c1` (stereo not drawn) [Sample No. 2, 1-aza-2-[5-bromo(3-pyridyl)]tricyclo[3.3.1.1^3,7]decane], the EC50 (commonly the concentration that produces a half-maximal response) was greater than 100 µM and the “Emax (dopamine release)” value is reported as 0%.

As for `CC(C)Oc1cncc(C2C3CC4CC(C3)CN2C4)c1` (stereo not drawn) [Sample No. 5, 1-aza-2-[5-isopropoxy-(3-pyridyl)]tricyclo[3.3.1.1^3,7]decane], the EC50 was greater than 100 µM and the “Emax (dopamine release)” value is recorded as 0%.

In the case of `Cl.Cl.Cl.Nc1cncc(C2C3CC4CC(C3)CN2C4)c1` (stereo not drawn) [Sample No. 3, 1-aza-2-[5-amino-(3-pyridyl)]tricyclo[3.3.1.1^3,7]decane trihydrochloride], the EC50 was greater than 100 µM and the “Emax (dopamine release)” value is given as 0%.

Consider `CCOc1cncc(C2C3CC4CC(C3)CN2C4)c1` (stereo not drawn) [Sample No. 4, 1-aza-2-[5-ethoxy-(3-pyridyl)]-tricyclo-[3.3.1.1^3,7]decane], for which the EC50 was greater than 100 µM and the “Emax (dopamine release)” value was 0%.
